Patent US20250059474A1, “Liquid formulation comprising an alcohol and highly water soluble manganese complex salt catalyst, bleaching formulation and cleaning agent comprising the same” (Catexel GmbH, priority 2023, published 2025)
Like-named read-outs stand apart in the source and are kept apart here. One block for each compound: values may come before it.

Assays:
[1] = Stability of PVOH pouches containing solvents; conditions: 26 weeks at 40° C. then 26 weeks at room temperature
Protocol: In small pouches made from a standard PVOH film, different solvents were added (1 mL), the pouch was sealed using a hot plate (150° C.). The pouches containing the solvent were stored for 26 weeks at 40° C. and then for 26 weeks at room temperature.

[2] = Dissolution and storage stability of MnTACN salts in various solvents; assay type: physicochemical
Protocol: Dissolution of MnTACN-PF6 catalyst in various solvents was performed. First a screening was done in which solvents the PF6 salt of the MnTACN catalyst could be dissolved.

[3] = Solubility in water at 20° C.; assay type: physicochemical
[4] = Dishwash machine tea-stain cleaning experiments; conditions: 0 = no cleaning, 100 = complete removal
Protocol: A standard dishwash machine tablet was prepared using the same ingredients as disclosed in WO2022/058039 (Weylchem Performance Products GmbH). Together with each tablet (14 g) on top, either no catalyst was added (blank), 100 mg of Weylclean® FDO X (uncoated granules containing 2 wt-% of MnTACN-PF6 (comparative)) was added, or 82 mg of dipropylene glycol containing 1.64 mg of dissolved MnTACN-SO4 (Exp low MnTACN-SO4) or 100 mg of dipropylene glycol containing 2 mg of dissolved MnTACN-SO4 (Exp high MnTACN-SO4).

[5] = Dowanol PM with 3 wt % citric acid
[6] = dipropylene glycol with 3 wt % of nitric acid
[7] = dipropylene glycol with 3 wt % sulfuric acid
[8] = propylene glycol, no acids added

SMILES: COC(C)COC(C)CO (stereo not drawn) [Dowanol DPM, dipropylene glycol methyl ether]
stability of PVOH pouches containing the solvent ([1]; solvent without acid, 1 mL): good stability

SMILES: COCC(C)O (stereo not drawn) [Dowanol PM, propylene glycol methyl ether]
stability of PVOH pouches containing the solvent ([1]; solvent with 3 wt % H2SO4): not stable
stability of PVOH pouches containing the solvent ([1]; solvent with 3 wt % HNO3): good stability
stability of PVOH pouches containing the solvent ([1]; solvent with 3 wt % citric acid): not stable
stability of PVOH pouches containing the solvent ([1]; solvent without acid, 1 mL): not stable

SMILES: CN1CCN(C)CCN(C)CC1.CN1CCN(C)CCN(C)CC1.O.O.O.[Cl-].[Cl-].[Mn+4].[Mn+4].[O-2].[O-2].[O-2] [MnTACN-Cl2, [Mn^IV2(μ-O)3(Me3-TACN)2]Cl2*3H2O]
solubility in solvent ([2]; dipropylene glycol, had to be heated): dissolved
solubility in water [3]: greater than 182 g/L
solubility in water ([3]; equated from g/L): > 18.2 wt %

SMILES: CN1CCN(C)CCN(C)CC1.CN1CCN(C)CCN(C)CC1.O=[N+]([O-])[O-].O=[N+]([O-])[O-].[Mn+4].[Mn+4].[O-2].[O-2].[O-2] [MnTACN-NO3, [Mn^IV2(μ-O)3(Me3-TACN)2](NO3)2]
solubility and stability in solvent [2, 5]: good solubility and stability
solubility and stability in solvent ([2]; Dowanol PM with sulfuric acid): good solubility and stability
solubility and stability in solvent ([2]; Dowanol PM without acid): good solubility and stability
solubility and stability in solvent ([2]; dipropylene glycol): good solubility and stability
solubility and stability in solvent [2, 6]: good solubility and stability
solubility and stability in solvent [2, 7]: good solubility and stability
solubility and stability in solvent [2, 8]: good solubility and stability
solubility in water [3]: greater than 283 g/L
solubility in water ([3]; equated from g/L): > 28.3 wt %

Continued, in another order:

solubility in solvent ([2]; 1,3-propanol-diol): Poor solubility
solubility in solvent ([2]; 1-hexanol): Poor solubility
solubility in solvent ([2]; 1-propanol): Poor solubility
solubility in solvent ([2]; 2-ethyl-1-hexanol): Poor solubility
solubility in solvent ([2]; 2-propanol): Poor solubility
solubility in solvent ([2]; Dowanol DPM): Poor solubility
solubility and stability in solvent ([2]; Dowanol PM without acid): Poor solubility
solubility in solvent ([2]; acetonitrile): dissolved very well
solubility and stability in solvent ([2]; dipropylene glycol): Poor solubility
solubility in solvent ([2]; ethanol (abs)): Poor solubility
solubility in solvent ([2]; ethyl acetate): Poor solubility
solubility in solvent ([2]; ethylene glycol, after heating): dissolved
solubility in solvent ([2]; formic acid): well soluble
stability (appearance) in solution ([2]; formic acid): turned brown
solubility in water [3]: 10.8 g/L
SMILES: CN1CCN(C)CCN(C)CC1.CN1CCN(C)CCN(C)CC1.F[P-](F)(F)(F)(F)F.F[P-](F)(F)(F)(F)F.O.[Mn+4].[Mn+4].[O-2].[O-2].[O-2] [MnTACN-PF6, [Mn^IV2(μ-O)3(Me3-TACN)2](PF6)2*H2O, reference compound]

solubility and stability in solvent [2, 5]: good solubility and stability
solubility and stability in solvent ([2]; Dowanol PM with nitric acid): poor solubility
solubility and stability in solvent ([2]; Dowanol PM with sulfuric acid): poor solubility
solubility and stability in solvent ([2]; Dowanol PM without acid): good solubility and stability
solubility and stability in solvent ([2]; dipropylene glycol): good solubility and stability
solubility and stability in solvent ([2]; dipropylene glycol with 3 wt % citric acid): good solubility and stability
solubility and stability in solvent [2, 6]: precipitation
solubility and stability in solvent [2, 7]: precipitation
solubility and stability in solvent [2, 8]: good solubility and stability
solubility in water [3]: greater than 735 g/L
solubility in water ([3]; equated from g/L): > 73.5 wt %
SMILES: CN1CCN(C)CCN(C)CC1.CN1CCN(C)CCN(C)CC1.O.O.O.O.O=S(=O)([O-])[O-].[Mn+4].[Mn+4].[O-2].[O-2].[O-2] [MnTACN-SO4, [Mn^IV2(μ-O)3(Me3-TACN)2]SO4*4H2O]
tea-stain cleaning on tea cups ([4]; 14 g tablet + 82 mg dipropylene glycol containing 1.64 mg dissolved catalyst (Exp low)): 80 points
tea-stain cleaning on tea cups ([4]; 14 g tablet + 100 mg dipropylene glycol containing 2 mg dissolved catalyst (Exp high)): 85 points

solubility and stability in solvent ([2]; dipropylene glycol): dissolved
solubility in water [3]: greater than 100 g/L
solubility in water ([3]; equated from g/L): > 10 wt %
SMILES: CN1CCN(C)CCN(C)CC1.CN1CCN(C)CCN(C)CC1.Cc1ccc(S(=O)(=O)[O-])cc1.Cc1ccc(S(=O)(=O)[O-])cc1.[Mn+4].[Mn+4].[O-2].[O-2].[O-2] [MnTACN-Ts2, [Mn^IV2(μ-O)3(Me3-TACN)2](tosylate)2]

solubility and stability in solvent ([2]; dipropylene glycol): dissolved well
stability upon storage in solution ([2]; dipropylene glycol, room temperature for at least 7 months): very high stability
solubility in water [3]: greater than 1000 g/L
SMILES: CN1CCN(C)CCN(C)CC1.CN1CCN(C)CCN(C)CC1.O.O.O.O.O=C([O-])c1ccccc1.O=C([O-])c1ccccc1.[Mn+4].[Mn+4].[O-2].[O-2].[O-2] [MnTACN-benzoate, [Mn^IV2(μ-O)3(Me3-TACN)2](benzoate)2*4H2O]
